# In PMC12348157, “Neuroprotective Evaluation of Murraya Carbazoles: In Vitro and Docking Insights into Their Anti-AChE and Anti-Aβ Activities” (Molecules, 2025):
# Several values for one entry are separate records, joined by “and”; a condition that tells them apart may be missing. Equal entries are not always repeated. Where two headings read alike, the source gives them in different places.
# Columns and labels:
# [1] = target: T1, Acetylcholinesterase (Electrophorus electricus, Type VI-S) (Electrophorus electricus, UniProt O42275); test: biochemical; conditions: Electrophorus electricus AChE, mean of three experiments ± SD; read-out: IC50 anti-AChE activity (converted)
# T1 sequence (O42275 24-633): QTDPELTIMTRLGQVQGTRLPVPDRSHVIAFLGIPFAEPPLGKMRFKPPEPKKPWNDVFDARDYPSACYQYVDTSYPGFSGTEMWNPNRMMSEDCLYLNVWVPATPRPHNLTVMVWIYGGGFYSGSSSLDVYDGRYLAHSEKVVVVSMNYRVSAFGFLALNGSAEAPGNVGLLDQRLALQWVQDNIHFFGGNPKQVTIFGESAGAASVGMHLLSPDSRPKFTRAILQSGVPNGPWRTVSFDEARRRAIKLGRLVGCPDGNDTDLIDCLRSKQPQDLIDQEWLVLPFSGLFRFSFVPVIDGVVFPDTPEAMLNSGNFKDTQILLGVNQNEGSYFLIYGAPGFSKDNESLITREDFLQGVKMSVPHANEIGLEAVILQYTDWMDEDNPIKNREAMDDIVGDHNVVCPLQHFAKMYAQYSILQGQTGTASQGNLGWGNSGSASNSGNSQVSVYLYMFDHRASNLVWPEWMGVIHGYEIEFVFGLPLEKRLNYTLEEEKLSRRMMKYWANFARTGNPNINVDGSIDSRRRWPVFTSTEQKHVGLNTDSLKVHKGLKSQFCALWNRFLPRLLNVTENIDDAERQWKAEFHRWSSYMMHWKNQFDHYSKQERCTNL
# [2] = target: T2, Aβ1-42 fibrillization (Homo sapiens, UniProt P05067); test: Thioflavin T (ThT) anti-Aβ fibrillization assay; type: biochemical; conditions: mean ± SD (n = 3); for Aβ fibrillization inhibition: samples 500 μg/mL, 24 h
# T2 construct: Aβ1–42 was purchased from GenicBio Inc; purchased GenicBio Inc
# T2 sequence (P05067 672-713): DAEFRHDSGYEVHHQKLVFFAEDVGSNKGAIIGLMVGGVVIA
# [3] = target: T1, Acetylcholinesterase (Electrophorus electricus, Type VI-S); test: AChE inhibition kinetics (Lineweaver–Burk / Michaelis–Menten); type: biochemical; conditions: for Inhibition Type: Lineweaver–Burk plots
# Procedure: The inhibition curves were plotted using linear regression (Lineweaver–Burk plot) on GraphPad Prism 10.3 (Figure 8).
# The Km and Vmax values were calculated using a non-linear fit (Michaelis–Menten equation) (Table 6). The Ki value (inhibitor constant), the dissociation constant describing the binding affinity between the inhibitor and the enzyme, was calculated as described previously.
# AChE inhibition was measured using Ellman’s method with slight modifications. The compounds were incubated with the enzyme and the substrate (10 mM ATC) for 15 min. Later, 15 mM DTNB was added, and the plate was incubated for 10 min at 37 °C. The absorbance was measured at 412 nm using a multimode reader (Synergy-H1 BioTek, Agilent, Santa Clara, CA, USA). Galantamine served as a positive control. Percent inhibition was computed using the equation: […]
# Statistical analysis was performed by one-way ANOVA followed by Dunnett’s post hoc test. The data were registered as the mean ± SD of at least three experiments. The symbol *** represent p < 0.001 significance compared to the control. The IC50 values were determined using non-linear regression, and the Lineweaver–Burk plots were drawn using linear regression analysis by GraphPad Prism 10.3.
# [4] = system: AChE; conditions: cited from earlier work
# [5] = system: LPS-treated animal models; conditions: cited from earlier work
# [6] = system: microglial cells; conditions: cited from earlier work
# [7] = listed as 9-methyl-9H-carbazole-2-carbaldehyde
# [8] = inhibitor 10 μg/mL, read-out: Ki
# [9] = inhibitor 30 μg/mL, read-out: Ki
# [10] = no inhibitor concentration stated, read-out: Ki value
# [11] = pre-treatment, LPS-treated animal models
SMILES,IC50 [1],Aβ fibrillization inhibition [2],"Aβ fibrillization inhibition [2, 7]",Inhibition Type [3],"Inhibition Type [3, 7]",Vmax ([3]; inhibitor 10 μg/mL) [µmol/min/mg],"Ki [3, 8] [nM]",Vmax ([3]; inhibitor 30 μg/mL) [µmol/min/mg],"Ki [3, 9] [nM]","Ki [3, 10]","IC50 anti-AChE, previously reported value [4] [µg/mL]",Aβ1-40 levels ([5]; animal model),Cognition ([5]; animal model),"ACh levels in the brain [5, 11]","AChE in the brain [5, 11]",Inhibition Type ([3]; listed as mahanimbine),Neuroprotective activity by reducing inflammation [6],Inhibition Type ([3]; listed as murrayafoline A),Inhibition Type ([3]; listed as murrayanol),"inhibition at 50 µM ([2]; phenol red 50 μM, read-out: Aβ fibrillization inhibition (positive control)) [%]"
"Cn1c2ccccc2c2ccc(C=O)cc21 [9-Methyl-9H-carbazole-2-carbaldehyde, 9-methyl-9H-carbazole-2-carbaldehyde]",37600 nM,did not show any inhibition,no inhibition,Competitive,Competitive inhibition,0.3874,29200,0.3634,31400,~30000 nM,,,,,,,,,,
"COc1ccc2c3c1O[C@H]1C[C@@H](O)C=C[C@@]31CCN(C)C2 [Galantamine, galantamine]",,,,,,,,,,,0.31,,,,,,,,,
"CC(C)=CCCC1(C)C=Cc2c(c(C)cc3c2[nH]c2ccccc23)O1 (centres unmarked) [Mahanimbine, mahanimbine]",~603 nM and 603 nM,27.68 ± 2.71%,,Non-Competitive,,0.2098,599,0.2231,599,440 to 590 nM,,reduced,improved cognition,improved,inhibited,non-competitive inhibition,,,,
"COc1cc(C)cc2c1[nH]c1ccccc12 [Murrayafoline A, murrayafoline A]",67800 nM,33.60 ± 0.55%,,Competitive,,0.3826,58700,0.3753,61000,~60000 nM,,,,,,,neuroprotective activity,Competitive inhibition,,
"COc1cc2[nH]c3c(C/C=C(\C)CCC=C(C)C)c(O)ccc3c2cc1C [Murrayanol, murrayanol]",~550 nM and 523 nM,40.83 ± 0.30%,,Competitive,,0.3756,444,0.3613,470,~450 nM and 450 nM and 440 to 590 nM,,,,,,,,,Competitive inhibition,
"O=S1(=O)OC(c2ccc(O)cc2)(c2ccc(O)cc2)c2ccccc21 [phenol red, reference compound]",,,,,,,,,,,,,,,,,,,,67.86 ± 0.38
